Assay results taken from publication PMC12040169 (PLOS Biology, 2025).

Assay: in vitro
Conditions: human, hela cells, % viability
`Cc1nn(C)c(N2CCNCC2)c1NC(=O)c1ccccc1` [CBK050257T] gave a viability at 28.5 h, 10 µM of 99%.
In the case of `O=C(Nc1c(F)cc(F)cc1OC1CCNCC1)c1cnccn1` [CBK050273T], the viability at 28.5 h, 10 µM is reported as 100%.
`O=C(Nc1c(F)cc(F)cc1OC1CCNCC1)c1ccccn1` [CBK050274T] gave a viability at 28.5 h, 10 µM of 94.8%.
`O=C(Nc1c(F)cc(F)cc1OC1CCNCC1)c1cccnc1` [CBK050275T] showed a viability at 28.5 h, 10 µM of 100%.
Work on `COc1ccc(C(=O)Nc2ccccc2OC2CCNCC2)cc1` [CBK050282T] yielded a viability at 28.5 h, 10 µM of 85%.
Molecule `COc1ccc(C(=O)Nc2c(OC)cc(F)cc2OC2CCNCC2)cc1` [CBK050294T] has a viability at 28.5 h, 10 µM of 97%.
With `Cc1nn(C)c(N2CCNCC2)c1NC(=O)c1cccn1C` [CBK050309T] the viability at 28.5 h, 10 µM was 94.8%.
Molecule `O=C(/C=C/c1cccnc1)Nc1c(F)cc(F)cc1OC1CCNCC1` [CBK050324T] has a viability at 28.5 h, 10 µM of 90.5%.
With `Cn1cc(C(=O)Nc2c(F)cc(F)cc2OC2CCNCC2)c2ccccc21` [CBK050328T] the viability at 28.5 h, 10 µM was 89.1%.
`COc1cc(F)cc(OC2CCNCC2)c1NC(=O)c1coc2c1C(=O)CCC2` [CBK050351T] showed a viability at 28.5 h, 10 µM of 91.5%.
With `COc1cc(F)cc(OC2CCNCC2)c1NC(=O)C1=CC(=O)CC(C)(C)O1` [CBK050352T] the viability at 28.5 h, 10 µM was 96.9%.
Work on `COc1ccc(/C=C(\C)C(=O)Nc2c(OC)cc(F)cc2OC2CCNCC2)cc1OC` [CBK050353T] yielded a viability at 28.5 h, 10 µM of 98.6%.
In the case of `Cc1nn(C)c(N2CCNCC2)c1NC(=O)/C=C/c1cccnc1` [CBK050354T], the viability at 28.5 h, 10 µM is reported as 95.4%.
`Cc1nn(C)c(N2CCNCC2)c1NC(=O)C1=CC(=O)CC(C)(C)O1` [CBK050362T] gave a viability at 28.5 h, 10 µM of 99.9%.
In the case of `O=c1c(N2CCNCC2)nccn1CCc1cccs1` [CBK050382T], the viability at 28.5 h, 10 µM is reported as 89.3%.
For `COCCn1c(-c2ccc(CN3CCCC3)cc2)cc2onc(C)c2c1=O` [CBK050385C], the viability at 28.5 h, 10 µM was 104%.
With `CCN(CC)C(=O)c1sccc1NS(=O)(=O)Cc1ccccc1[N+](=O)[O-]` [CBK050396] the viability at 28.5 h, 10 µM was 97%.
Molecule `O=C(Nc1ccc(F)cc1)c1ccc(NS(=O)(=O)c2ccc(Br)cc2)cc1` [CBK050400] has a viability at 28.5 h, 10 µM of 103%.
Molecule `CC(=O)Nc1ccc(S(=O)(=O)Nc2ccc(C(=O)Nc3ccc(F)cc3)cc2)cc1` [CBK050401] has a viability at 28.5 h, 10 µM of 111%.
Molecule `CC(=O)Nc1ccc(S(=O)(=O)Nc2ccc(C(=O)N3CCN(C)CC3)cc2)cc1` [CBK050406] has a viability at 28.5 h, 10 µM of 93.1%.
Work on `CC(=O)Nc1ccc(S(=O)(=O)Nc2cccc(C(=O)O)c2)cc1` [CBK050407] yielded a viability at 28.5 h, 10 µM of 98.7%.
Molecule `CN1CCN(C(=O)c2c(NS(=O)(=O)/C=C/c3ccccc3)sc3c2CCCC3)CC1` [CBK050417] has a viability at 28.5 h, 10 µM of 94.3%.
Molecule `CN1CCN(C(=O)c2c(NS(=O)(=O)c3cc(F)c(Br)cc3F)sc3c2CCCC3)CC1` [CBK050419] has a viability at 28.5 h, 10 µM of 90.5%.
For `O=C(c1sccc1NS(=O)(=O)c1ccc(Oc2ccccc2)cc1)N1CCOCC1` [CBK050423], the viability at 28.5 h, 10 µM was 95.3%.
`CC(=O)Nc1ccc(S(=O)(=O)Nc2ccc(C(=O)O)cc2)cc1` [CBK050427] showed a viability at 28.5 h, 10 µM of 91.3%.
For `Cc1ccc(S(N)(=O)=O)cc1C(=O)Nc1nncs1` [CBK050456], the viability at 28.5 h, 10 µM was 105%.
In the case of `O=S(=O)(Nc1nnn[nH]1)c1ccc(F)cc1` [CBK050473], the viability at 28.5 h, 10 µM is reported as 104%.
`O=S(=O)(Nc1ccc(-c2csnn2)cc1)c1ccc(F)cc1` [CBK050482] gave a viability at 28.5 h, 10 µM of 92.1%.
For `Cc1nc(NS(=O)(=O)c2c(C)noc2C)sc1C(=O)Nc1ccc(F)cc1` [CBK050551], the viability at 28.5 h, 10 µM was 113%.
Molecule `CCOC(=O)c1ccccc1NS(=O)(=O)c1ccc(C(F)(F)F)cc1[N+](=O)[O-]` [CBK050584] has a viability at 28.5 h, 10 µM of 96.2%.
With `CCOC(=O)c1ccccc1NS(=O)(=O)Cc1ccccc1[N+](=O)[O-]` [CBK050594] the viability at 28.5 h, 10 µM was 92.3%.
Molecule `Cc1ccc(S(=O)(=O)NCC(=O)N2CCOCC2)cc1[N+](=O)[O-]` [CBK050597] has a viability at 28.5 h, 10 µM of 98.1%.
Molecule `CCN(CC)C(=O)c1sc2ncccc2c1NS(=O)(=O)c1ccc(C)c([N+](=O)[O-])c1` [CBK050618] has a viability at 28.5 h, 10 µM of 112%.
`O=C(O)c1sc2ncccc2c1NS(=O)(=O)c1ccc(C(F)(F)F)cc1[N+](=O)[O-]` [CBK050647] showed a viability at 28.5 h, 10 µM of 118%.
